# Results as given in patent US20220323443A1, “COMBINATION THERAPY FOR CANCER TREATMENT” (TAKEDA PHARMACEUTICAL COMPANY LIMITED, priority 2019, published 2022).
# Where a name gives a salt, the structure may show the parent alone. Read-outs that look alike come from different tables or passages of the source.
# How the values were obtained:
# [1] = test system: CALU6 (Lung); experiment: In vitro combination study for selected compounds, additional cell lines; type: cell-based; conditions: drug combined with Compound 1
# Protocol: (§1) In vitro anti-proliferative effects of selected compounds were tested in additional cell lines, including ovarian cancer (SKOV3) and pancreatic cancer (MIA-PACA-2) cell lines.
# [2] = test system: H-1650 (Lung); experiment: as above; type: cell-based; conditions: drug combined with Compound 1
# Protocol: as §1
# [3] = test system: ovarian cancer (SKOV3) cell line; experiment: as above; type: cell-based; conditions: drug combined with Compound 1
# Protocol: as §1
# [4] = test system: pancreatic cancer (MIA-PACA-2) cell line; experiment: as above; type: cell-based; conditions: drug combined with Compound 1
# Protocol: as §1
# [5] = test system: PHTXM-79Es human primary esophagus cancer xenografts; experiment: In vivo combination study, Patient Derived Xenograft; design: species or system mouse; conditions: for Result (combination with Compound 1, tumor growth): Compound 1 60 mg/kg once daily Day 1-21; for antitumor activity: combined with Compound 1, PHTXM-79Es human primary esophagus cancer xenografts, FIG. 5B
# Protocol: (§2) To investigate in vivo antitumor activity of Compound 1 in combination with other agents, tests using Cell Derived Xenograft (CDX), Patient Derived Xenograft (PDX) and Syngeneic mouse tumor isograft model were conducted. Cells or Patient Derived Tumors were inoculated by one method of the following two methods (Method A and B) as shown Table 7.
# (§3) Method A; Cells were maintained in either immune deficient nude mice or immune competent mice by subcutaneous inoculation of tumor cells at various concentrations into respected mice. Method B: Patient Derived Tumor s were maintained in nude mice by subcutaneous inoculation of tumor pieces (approx. 2×2×2 mm) into nude mice. Mice with tumor size of approximately 50 mm^3 (e.g., 40-75 mm^3) for syngeneic mouse studies or 200 mm^3 (e.g., 110-270 mm^3) for xenograft studies were randomly assigned to dose groups on the day (Day 0) before start date of dosing.
# (§4) Compound 1 (crystalline form I) was suspended in 0.5 w/v % methylcellulose and administered orally to mice. Antibodies which administered in the experiment were described in Table 8.
# (§5) Tumor size was measured by caliper and tumor volume was estimated using the equation V=(LW^2)/2, where L and W are tumor length and width, respectively and reported in cubic millimeters.
# (§6) These values were compared across treatment groups to assess whether the differences in the trends over time were statistically significant. To compare pairs of treatment groups, the following mixed-effects linear regression model was fit to the data using the maximum likelihood method:
# (§7) For synergy analyses, the observed differences in the log tumor values were used to calculate AUC values for each animal. In instances when an animal in a treatment group was removed from the study, the last observed tumor value was carried forward through all subsequent time points. The AUC for the control, or vehicle, group was calculated using the predicted values from the pairwise models described above. We defined a measure of synergy as follows:
# (§8) where Ak and Bk are the k^th animal in the individual treatment groups and ABk is the k^th animal in combination treatment group. AUCcd is the model-predicted AUC for the control group and was treated as a constant with no variability. The standard error of the synergy score was calculated as the square root of the sum of squared standard errors across groups A, B, and AB. The degrees of freedom were estimated using the Welch-Satterthwaite equation. A hypothesis test was performed to determine if the synergy score differed from 0. P values were calculated by dividing the synergy score by its standard error and tested against a t-distribution (two-tailed) with the above-calculated degrees of freedom.
# (§9) The effect was classified into four different categories. It was considered synergistic if the synergy score was less than 0 and additive if the synergy score wasn't statistically different from 0. If the synergy score was greater than zero, but the mean AUC for the combination was lower than the lowest mean AUC among the two single agent treatments, then the combination was sub-additive. If the synergy score was greater than zero, and the mean AUC for the combination was greater than the mean AUC for at least one of the single agent treatments, then the combination was antagonistic.
# [6] = test system: PHTX-11C; experiment: In vivo combination study, xenograft; design: species or system mouse; conditions: PHTX-11C (270 mm^3)
# [7] = test system: PHTX-09C (Colorectal); experiment: In vivo combination study, Patient Derived Xenograft; design: species or system mouse; conditions: PHTX-09C (155 mm^3)
# [8] = test system: PHTXM-35Es human primary esophagus cancer xenografts; experiment: as above; design: species or system mouse; conditions: PHTXM-35Es (240 mm^3), Compound 1 60 mg/kg once daily Day 1-21
# Protocol: as §2, §3, §4, §5, §6, §7, §8, §9
# [9] = test system: PHTXM-90Es (Esophagus); experiment: as above; design: species or system mouse; conditions: PHTXM-90Es (185 mm^3), Compound 1 60 mg/kg once daily Day 1-21
# Protocol: as §2, §3, §4, §5, §6, §7, §8, §9
# [10] = test system: PHTX-249Pa human primary pancreatic xenografts; experiment: as above; design: species or system mouse; conditions: PHTX-249Pa (195 mm^3)
# Protocol: as §2, §3, §4, §5, §6, §7, §8, §9
# [11] = test system: PHTXM-97Pa (Pancreatic); experiment: as above; design: species or system mouse; conditions: PHTXM-97Pa (180 mm^3)
# Protocol: as §2, §3, §4, §5, §6, §7, §8, §9
# [12] = test system: A549 cancer cells; experiment: In vitro combination study with Compound 1, Cell Titer-Glo (ATP) cell viability, 72 h; type: cell-based;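 further: Ten-by-ten dose matrices of the two agents in duplicate, compounds added 16 h post-plating, activity relative to DMSO vehicle wells, call reflects synergy evaluation from luminescence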
# [13] = test system: COLO205 cancer cells; experiment: as above; type: cell-based, human; conditions: DNA damaging agent combined with Compound 1; 72 h;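 further: Ten-by-ten dose matrices of both agents in duplicate plus single-agent dilutions, luminescent ATP read-out, percent activity per well relative to DMSO vehicle wells, synergy call from these matrices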
# Protocol: (§10) Each combination pair was evaluated in an individual 384-well plate which contained variable doses of both compounds as single agents, as well as two, ten-by-ten matrices (in duplicate) that contained mixtures of the two test compounds. In brief, compounds were added to the cell test plates 16 hours after cell plating and then assessed for viability 72 hours later. Continuous cultures of tumor cells were maintained under standard cell culturing conditions (i.e. in a humidified chamber set at 37° C., containing atmosphere 5% carbon dioxide). […] Seventy-two hours after compound addition, ATP levels were measured to assess cell viability. Plating densities were chosen to ensure optimal linear growth over the 72 hour period.
# (§11) Compound dilution and compound delivery to the assay plates were done on HighRes Robotic System (HighRes Biosolutions, Woburn, Mass., USA) with Echo™ Liquid Handler (Labcyte, Sunnyvale, Calif., USA). […] Next, these were used for compound transfer into cell assay plates. All wells were back-filled to give a constant percentage of DMSO.
# (§12) The final DMSO concentration was held constant in all wells across the plate and was maintained at less than 0.5%. […] Cells treated with vehicle (DMSO) in two rows, or single compound serial dilutions in one plate columns/row served as the untreated control and single compound controls, respectively.
# (§13) Compound activity in A549, COLO205, H460, HCT116, SW48, SW620 cancer cell lines was assessed using Cell Titer-Glo® (Promega [Madison, Wis., USA]). After 72 hours incubation, the plates were treated as per package insert protocol for the Promega Luminescence ATP Detection Systems. Briefly, 25 μL of cell lysis/substrate solution (provided in kit form) was added to each well and the plate was incubated at room temperature for 10 minutes. Luminescence was measured using a PHERAstar multi-label counter (BMG Labtech [Ortenberg, Germany]) or LEADseeker (GE Healthcare Life Sciences [Piscataway, N.J., USA]).
# (§14) Numerical luminescence values were analyzed to generate EC50 curves and evaluate synergy. Raw Data reader files were uploaded along with automation workfiles that defined the plate and well contents. Percent activities were calculated for each well versus plate controls.
# (§15) Each plate representing a single drug combination was analyzed separately. First, the viability measurements were normalized by scaling the data so that the median of the negative controls was 0 and the median of the positive controls was 100.
# (§16) For the combination analysis, a response surface model was used to describe the relationship between the normalized viability and the drug concentrations. The data were fit to the model by minimizing the residual sum of squares. Based on the fitted response surface, plots of constant viability, called isobolograms, were produced.
# (§17) The Combination Index and Nonlinear Blending were used as measures of drug synergy. To calculate Combination Index the 50% isobologram (which is the dose contour that has 50% viability) was used. […] A standard procedure was created to produce a call in order to characterize the viability effects for each combination (synergy, additivity, subadditivity, or antagonism). If the Combination Index existed then these measures were used to make the call.
# [14] = test system: H460 cancer cells; experiment: as above; type: cell-based; conditions: DNA damaging agent combined with Compound 1; 72 h;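 further: Ten-by-ten dose matrices of both drugs alongside single-agent dilutions, luminescence read 72 hours after compound addition, percent activity per well versus vehicle (DMSO) plate controls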
# Protocol: as §10, §11, §12, §13, §14, §15, §16, §17
# [15] = test system: HCT116 cancer cells; experiment: as above; type: cell-based; conditions: DNA damaging agent combined with Compound 1; 72 h;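 further: combination call from 10×10 dose matrices in duplicate, graded by synergy, with percent activity per well relative to DMSO vehicle controls on the same plate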
# Protocol: as §10, §11, §12, §13, §14, §15, §16, §17
# [16] = test system: SW48 cancer cells; experiment: as above; type: cell-based; conditions: DNA damaging agent combined with Compound 1; 72 h
# Protocol: as §10
# Compound dilution and compound delivery to the assay plates were done on HighRes Robotic System (HighRes Biosolutions, Woburn, Mass., USA) with Echo™ Liquid Handler (Labcyte, Sunnyvale, Calif., USA). First, 384-well low dead volume (LDV) plates containing DMSO (Appendix B) and 10 mM compound stock solutions were used to create the required intermediate compound dilution plates. Next, these were used for compound transfer into cell assay plates. All wells were back-filled to give a constant percentage of DMSO.
# as §12, §13, §14, §15, §16, §17
# [17] = test system: SW620 cancer cells; experiment: as above; type: cell-based; conditions: DNA damaging agent combined with Compound 1; 72 h;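 further: Ten-by-ten dose matrices of both drugs in 384-well plates, luminescent ATP read-out, synergy evaluated against single-agent and DMSO vehicle controls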
# [18] = Compound 1 40 mg/kg once daily Day 1-21, drug 15 mg/kg intravenously Days 1-3, 8-10, 15-17
# [19] = Compound 1 40 mg/kg once daily Day 1-21, drug 25 mg/kg intravenously Days 1-3, 8-10, 15-17
# [20] = Compound 1 60 mg/kg once daily Day 1-21, drug 15 mg/kg intravenously Days 1-3, 8-10, 15-17
# [21] = Compound 1 60 mg/kg once daily Day 1-21, drug 25 mg/kg intravenously Days 1-3, 8-10, 15-17
# [22] = drug 25 mg/kg intravenously Days 1-3, 8-10, 15-17
# [23] = Compound 1 20 mg/kg once daily Day 1-21, drug 5 mg/kg intraperitoneally Days 1,5,9,13,17,21
# [24] = Compound 1 20 mg/kg once daily Day 1-21, drug 10 mg/kg intraperitoneally Days 1,5,9,13,17,21
# [25] = Compound 1 40 mg/kg once daily Day 1-21, drug 5 mg/kg intraperitoneally Days 1,5,9,13,17,21
# [26] = Compound 1 40 mg/kg once daily Day 1-21, drug 10 mg/kg intraperitoneally Days 1,5,9,13,17,21
# [27] = drug 10 mg/kg intraperitoneally Days 1,5,9,13,17,21
structure (smiles),measurement,setting,value
O=c1[nH]cc(F)c(=O)[nH]1 [Fluorouracil],"In vitro combination effect with Compound 1, Lung CALU6",[1],Synergy
same,"In vitro combination effect with Compound 1, Lung H-1650",[2],Additive
same,"In vitro combination effect with Compound 1, Ovary SKOV3",[3],Additive
same,"In vitro combination effect with Compound 1, Pancreas MIA-PACA-2",[4],Additive
same,"Result (combination with Compound 1, tumor growth)","[5]; PHTXM-79Es (160 mm^3), drug 25 mg/kg intravenously Days 1-3, 8-10, 15-17",Synergistic
same,antitumor activity,[5],strong antitumor activity compared to either single treatment alone
same,"Result (combination with Compound 1, tumor growth)",[6]; [18],Additive
same,"Result (combination with Compound 1, tumor growth)",[6]; [19],Additive
same,"Result (combination with Compound 1, tumor growth)",[6]; [20],Additive
same,"Result (combination with Compound 1, tumor growth)",[6]; [21],subadditive
same,"Result (combination with Compound 1, tumor growth)",[7]; [18],Additive
same,"Result (combination with Compound 1, tumor growth)",[7]; [19],Additive
same,"Result (combination with Compound 1, tumor growth)",[7]; [20],Additive
same,"Result (combination with Compound 1, tumor growth)",[7]; [21],subadditive
same,"Result (combination with Compound 1, tumor growth)",[8]; [22],Additive
same,"Result (combination with Compound 1, tumor growth)",[9]; [22],Additive
"CCc1c2c(nc3ccc(OC(=O)N4CCC(N5CCCCC5)CC4)cc13)-c1cc3c(c(=O)n1C2)COC(=O)[C@]3(O)CC [Irinotecan (CPT-11), Irinotecan]","Result (combination with Compound 1, tumor growth)","[5]; PHTXM-79Es (160 mm^3) FIG. 5B, drug 10 mg/kg intraperitoneally Days 1,5,9,13,17,21",Additive
same,antitumor activity,[5],strong antitumor activity compared to either single treatment alone
same,"Result (combination with Compound 1, tumor growth)",[10]; [23],Additive
same,"Result (combination with Compound 1, tumor growth)",[10]; [24],Additive
same,"Result (combination with Compound 1, tumor growth)",[10]; [25],Additive
same,"Result (combination with Compound 1, tumor growth)",[10]; [26],Additive
same,"Result (combination with Compound 1, tumor growth)",[8]; [27],Additive
same,"Result (combination with Compound 1, tumor growth)",[9]; [27],Synergistic
same,"Result (combination with Compound 1, tumor growth)",[11]; [23],Additive
same,"Result (combination with Compound 1, tumor growth)",[11]; [24],Additive
same,"Result (combination with Compound 1, tumor growth)",[11]; [25],subadditive
same,"Result (combination with Compound 1, tumor growth)",[11]; [26],subadditive
CCc1c2c(nc3ccc(O)cc13)-c1cc3c(c(=O)n1C2)COC(=O)[C@]3(O)CC [SN-38],"Call, anti-proliferative effect of combination with Compound 1, A549",[12],Synergy (key: Inconclusive: Any; Additivity: 0.7 to 1.3; Synergy: 0 to 0.7; Subadditivity: 1.3 to 2; Antagonism: >2)
same,"Call, anti-proliferative effect of combination with Compound 1, COLO205",[13],Additivity (0.7 to 1.3)
same,"Call, anti-proliferative effect of combination with Compound 1, H460",[14],Synergy (0 to 0.7)
same,"Call, anti-proliferative effect of combination with Compound 1, HCT116",[15],Synergy (0 to 0.7)
same,"Call, anti-proliferative effect of combination with Compound 1, SW48",[16],Additivity (0.7 to 1.3)
same,"Call, anti-proliferative effect of combination with Compound 1, SW620",[17],Synergy (0 to 0.7)
same,"In vitro combination effect with Compound 1, Lung H-1650",[2],Additive
same,"In vitro combination effect with Compound 1, Ovary SKOV3",[3],Additive
same,"In vitro combination effect with Compound 1, Pancreas MIA-PACA-2",[4],Additive
CC[C@@]1(O)C(=O)OCc2c1cc1n(c2=O)Cc2cc3c(CN(C)C)c(O)ccc3nc2-1 [Topotecan hydrochloride],"Call, anti-proliferative effect of combination with Compound 1, A549","[12]; DNA damaging agent combined with Compound 1, 72 h",Synergy (0 to 0.7)
same,"Call, anti-proliferative effect of combination with Compound 1, COLO205",[13],Synergy (0 to 0.7)
same,"Call, anti-proliferative effect of combination with Compound 1, H460",[14],Synergy (0 to 0.7)
same,"Call, anti-proliferative effect of combination with Compound 1, HCT116",[15],Synergy (0 to 0.7)
same,"Call, anti-proliferative effect of combination with Compound 1, SW48",[16],Additivity (0.7 to 1.3)
same,"Call, anti-proliferative effect of combination with Compound 1, SW620",[17],Synergy (0 to 0.7)
same,"In vitro combination effect with Compound 1, Lung H-1650",[2],Additive
same,"In vitro combination effect with Compound 1, Ovary SKOV3",[3],Additive
same,"In vitro combination effect with Compound 1, Pancreas MIA-PACA-2",[4],Additive
